# Results as given in US20220226321A1, “INHIBITOR OF MNK FOR THE TREATMENT OF NEUROPATHIC PAIN” (Board of Regents, The University of Texas System, priority 2019, published 2022).
# Experiments:
# DRG neurons = settings: prior work; cited from earlier work
# mice [1] = settings: Moy et al. (2017); cited from earlier work
# eIF4E = assay: immunohistochemistry of p-eIF4E and eIF4E in L5 DRGs; format: in vivo, mouse; settings: WT mice, day 2, 3 hr post 2nd injection
# Procedure: For tissues, animals were anesthetized with isoflurane and killed by decapitation, and tissues were frozen in O.C.T. on dry ice. Spinal cords were pressure ejected using chilled 1×PBS. Sections of L4-L5 DRGs ([…]) were mounted onto SuperFrost Plus slides (Thermo Fisher Scientific) and fixed in ice-cold 10% formalin in 1×PBS for 1 h then subsequently washed 3×10 each in 1×PBS and processed for immunohistochemistry (IHC). Slides were permeabilized in 50% ethanol for 30 min. After 30 min, slides were washed 3×10 each in 1×PBS. Tissues were blocked for at least 2 h in 1×PBS and 10% NGS. Primary antibodies against NeuN, peripherin, p-eIF4E^S209 and eIF4E were applied and incubated with DRG sections on slides at 4° C. overnight. Immunoreactivity was visualized after 1 h incubation with Alexa Fluor secondary antibodies at room temperature. Images were taken using an Olympus FluoView 1200 confocal microscope. Images are presented as projections of Z stacks, and they are representative of samples taken from 3 animals.
# mice [2] = assay: mechanical paw withdrawal threshold (von Frey) after type I IFN or poly (I:C); format: in vivo, mouse; settings: 1 mg/kg i.p. for 2 consecutive days, 3-24 h after second administration
# Procedure: (§1) Behavior. Mice were housed on 12-hour light/dark cycles with food and water available ad libitum. Mice were randomized to groups from multiple cages to avoid using mice from experimental groups that were cohabitating. Sample size was estimated by performing a power calculation using G*Power (version 3.1.9.2). With 80% power and an expectation of d=2.2 effect size in behavioral experiments, and a set to 0.05, the sample size required was calculated as n=6 per group. The inventors therefore sought to have at least n=6 sample in all behavioral experiments. SD (set at 0.3) for the power calculation was based on previously published mechanical threshold data from the inventors' lab (Moy et al., 2017). Animals were habituated for 1 hour to clear acrylic behavioral chambers before beginning the experiment. For intraplantar injections, drugs were injected in a total volume of 25 μL through a 30-gauge needle. For intraperitoneal injections, drugs were administered in a volume of 100 μL Mechanical paw withdrawal thresholds in mice were measured using the up-down method (Chaplan et al., 1994) with calibrated von Frey filaments (Stoelting Company, WoodDale, Ill.). Thermal latency was measured using a Hargreaves device (IITC Life Science) (Hargreaves et al., 1988) with heated glass settings of 29° C., 40% active laser power, and 20 sec cutoff were used. The experimenter was blinded to the genotype of the mice and the drug condition in all experiments.
# mice [3] = assay: thermal latency (Hargreaves) after type I IFN or poly (I:C); format: in vivo, mouse; settings: 1 mg/kg i.p. for 2 consecutive days, 3-24 h after second administration
# Procedure: as §1
# cultured DRG neurons = assay: Western blot of cultured DRG neurons treated with IFN-α, IFN-β, ISRIB or poly (I:C); format: cell-based, mouse; settings: direct application 10 μg/mL
# Procedure: Primary cell culture of mouse DRG neurons and Western blot. Cultured primary DRG neurons were used to test the effects of IFN-α [(300 units (U)/mL] and IFN-β [(300 units (U)/mL] application. For these experiments, mice were anesthetized with isoflurane and killed by decapitation. Then DRGs, from all spinal levels, were dissected and placed in chilled Hanks balanced-salt solution (HBSS, Invitrogen) until processed. Dorsal root ganglia were digested in 1 mg/mL collagenase A (Roche, Mannheim, Germany) for 25 minutes at 37° C. then subsequently digested in a 1:1 mixture of 1 mg/mL collagenase D and papain (Roche) for 20 minutes at 37° C. After this step, dorsal root ganglia were then triturated in a 1:1 mixture of 1 mg/mL trypsin inhibitor (Roche) and bovine serum albumin (BioPharm Laboratories, Bluffdale, Utah), then filtered through a 70 μm cell strainer (Corning, N.Y.). Cells were pelleted then resuspended in DMEM/F12 with GlutaMAX (Thermo Fisher Scientific, MA) containing 10% fetal bovine serum (FBS; Thermo Fisher Scientific), 5 ng/mL NGF, 1% penicillin and streptomycin, and […] to inhibit mitosis of non-neuronal cells and were distributed evenly in a 6-well plate coated with poly-D-lysine (Becton Dickinson, NJ). DRG neurons were maintained in a 37° C. incubator containing 5% CO2 with a media change every other day. On day 6, DRG neurons were treated with either vehicle, IFN-α or IFN-β for 1, 3, 6 and 24 h. Following treatments, cells were rinsed with chilled 1×PBS buffer, harvested in 200 μL of RIPA lysis buffer (50 mM Tris, pH 7.4, 150 mM NaCl, 1 mM EDTA, pH 8.0, and 1% Triton X-100) containing protease and phosphatase inhibitors (Sigma-Aldrich), and then sonicated for 5 seconds. To clear debris, samples were centrifuged at 14,000 rpm for 15 min at 4° C. Ten to 15 μg of protein was loaded into each well and separated by a 10% SDS-PAGE gel. Proteins were transferred to a 0.45 PVDF membrane (Millipore, MA) at 30 V overnight at 4° C. Subsequently, membranes were blocked with 5% non-fat dry milk in 1× Tris buffer solution containing Tween 20 (TTBS) for at least 2 h. Membranes were washed 3 times for 10 minutes each (3×10) in 1×TTBS, then incubated with primary antibodies overnight at 4° C. The following day, membranes were washed 3×10 each then incubated with the corresponding secondary antibodies at room temperature for 1 h. After incubation, membranes were washed with 1×TTBS 3×10 each. Signals were detected using Immobilon Western Chemiluminescent HRP Substrate (Millipore) and then visualized with Bio-Rad ChemiDoc Touch. Membranes were stripped using Restore Western Blot Stripping buffer (Thermo Fisher Scientific) and reprobed with another antibody. Analysis was performed using Image lab 6.0.1 software for Mac (Bio-Rad, Hercules, Calif.).
# [4] = body temperature after intraperitoneal poly (I:C); format: in vivo, mouse; settings: 1 mg/kg i.p.
Compound,IL-6 induced DRG nociceptor excitability (DRG neurons),cold hypersensitivity induced by peripheral nerve injury (mice [1]),phosphorylated eIF4E immunoreactivity in L5 DRGs (eIF4E),total eIF4E protein in L5 DRGs (eIF4E),mechanical hypersensitivity (mice [2]),thermal hypersensitivity (mice [3]),"p-ERK, p-eIF4E, p-PKR or p-eIF2α (cultured DRG neurons)",core body temperature [4]
CC(=O)C1=C(O)C=C2Oc3c(C(N)=O)c(O)cc(O)c3[C@]2(C)C1=O [cercosporamide],attenuated,reduced,,,,,,
poly (I:C),,,increased phosphorylated eIF4E immunoreactivity,without affecting total eIF4E protein,developed mechanical hypersensitivity,thermal hypersensitivity,did not increase,increase in core body temperature
